Test results taken from article PMC8400343, “Synthesis and Evaluation of the Antidepressant-like Properties of HBK-10, a Novel 2-Methoxyphenylpiperazine Derivative Targeting the 5-HT1A and D2 Receptors” (Pharmaceuticals, 2021).

Columns and labels:
[1] = Spontaneous locomotor activity in mice; assay type: in vivo, mouse; details: mouse, in vivo; ip, mice; read-out: ED50 (locomotor activity, sedative effect)
Experimental: (§1) The locomotor activity of mice was measured as previously described. We used photoresistor actometers (Ugo Basile, Italy) connected to a counter for the recording of light-beam interruptions. Mice were placed individually in cages for 30 min, and the number of crossings of the light beams was recorded as the locomotor activity for 4 min.

mice [2] = assay: Spontaneous locomotor activity in mice; assay type: in vivo, mouse; details: for Number of Crossings ± SEM: 4 min
Experimental: as §1

[3] = Metabolic stability in mouse liver microsomes (MLMs); assay type: in vitro ADME
Experimental: Next, the target compound was incubated with mouse liver microsomes in the presence of an NADPH regenerating system. In the initial screening phase, the percentage of the parent compound recovered after 30 min of incubation was calculated (Table 2). […] The assay was performed with mouse liver microsomes from male CD-1. […] Metabolic reactions were initiated by the addition of the NADPH regenerating system, containing NADP, glucose-6-phosphate, and glucose-6-phosphate dehydrogenase. […] Enzymatic reactions were quenched by perchloric acid followed by addition of internal standard (pentoxifylline). Negative controls were performed without NADPH-regenerating system. After centrifugation, samples were analyzed by LC/MS (UPLC/MS, Waters Corporation, Milford, MA, USA). In vitro half time (t1/2) and intrinsic clearance (Clint) of test compound in liver microsomes were determined according to literature procedures.

dopamine D2 receptor = target: T1, dopamine D2 receptor (Homo sapiens, UniProt P14416); assay: Aequorin-based calcium mobilization functional assay, CHO-K1 cells; assay type: cell-based
T1 construct: expressed in transfected cells; host or cells: recombinant CHO-K1 co-expressing mitochondrially targeted aequorin and Gαqi/5
Experimental: Therefore, using in vitro functional assay, we next investigated the type of the interaction with this receptor.
Tested and reference compounds were dissolved in dimethyl sulfoxide (DMSO) at a concentration of 1 mM. Serial dilutions were prepared in 96-well microplate in assay buffer, and 8-to-10 concentrations were tested. A cellular aequorin-based functional assay was performed with recombinant CHO-K1 cells expressing mitochondrially targeted aequorin, human GPCR, and the promiscuous G protein Gαqi/5 for D2 receptor. After thawing, cells were transferred to assay buffer (DMEM/HAM’s F12 with 0.1% protease-free BSA) and centrifuged. The cell pellet was resuspended in assay buffer, and coelenterazine h was added at final concentrations of 5 µM. […] After 1 h of incubation, 50 µL of the cell’s suspension was dispensed using automatic injectors built into the radiometric and luminescence plate counter MicroBeta2 LumiJET (PerkinElmer, USA) into white opaque 96-well microplates preloaded with test compounds. Immediate light emission generated following calcium mobilization was recorded for 30 s. In antagonist mode, after 30 min of incubation, the reference agonist was added to the above assay mix and light emission was recorded again.

Chimney test in mice = assay type: in vivo, mouse; details: mouse, in vivo; ip, log-probit method
Experimental: (§2) The chimney test was performed as previously described. The mice were trained before the test, and only those animals able to get out of the chimney within 1 min, were used at the experimental stage. The selected mice were placed in a 25 cm long and 2.5 cm in diameter horizontally located tube, which was reversed so that the mice could leave it only by climbing up backward until they reached the other end. Motor impairment was indicated by the inability of the mice to perform the test within 60 s. The number of animals unable to climb backward within 60 s was recorded, and TD50 values were calculated.

mice [4] = assay: Chimney test in mice; assay type: in vivo, mouse
Experimental: as §2

human 5-HT2A receptor = target: T2, human 5-HT2A receptor (Homo sapiens, UniProt P28223); assay: Radioligand binding, [3H]-ketanserin, CHO-K1 membranes; details: CHO-K1 cells, mean ± SEM, read-out: Serotonergic pKi 5-HT2A (converted)
T2 construct: expressed in transfected cells; host or cells: CHO-K1 (membranes)
Experimental: (§3) Radioligand binding was performed on membranes from CHO-K1 cells stably transfected with the human 5-HT1A, 5-HT2A, 5-HT6, or 5-HT7 receptors. […] Binding experiments were conducted in 96-well microplates, and the reaction mix included the solution of the test compound, radioligand, and diluted membranes or the tissue suspension.
(§4) The reaction was terminated by rapid filtration through GF/B or GF/C filter mate presoaked with 0.3% polyethyleneimine for 30 min. Ten rapid washes with 200 µl 50 mM Tris buffer (4 °C, pH 7.4) were performed using an automated harvester system Harvester-96 MACH III FM (Tomtec). […] Radioactivity was counted in the MicroBeta2 scintillation counter (PerkinElmer) at approximately 30% efficiency. […] A single assay was performed with each compound concentrations in duplicate, and the whole assay was repeated in a three independent experiments.

human 5-HT1A receptor = target: T3, human 5-HT1A receptor (Homo sapiens, UniProt P08908); assay: Radioligand binding, [3H]8-OH-DPAT, CHO-K1 membranes; details: CHO-K1 cells, mean ± SEM, read-out: Serotonergic pKi 5-HT1A (converted)
T3 construct: expressed in transfected cells; host or cells: CHO-K1 (membranes)
T3 sequence (P08908 1-422): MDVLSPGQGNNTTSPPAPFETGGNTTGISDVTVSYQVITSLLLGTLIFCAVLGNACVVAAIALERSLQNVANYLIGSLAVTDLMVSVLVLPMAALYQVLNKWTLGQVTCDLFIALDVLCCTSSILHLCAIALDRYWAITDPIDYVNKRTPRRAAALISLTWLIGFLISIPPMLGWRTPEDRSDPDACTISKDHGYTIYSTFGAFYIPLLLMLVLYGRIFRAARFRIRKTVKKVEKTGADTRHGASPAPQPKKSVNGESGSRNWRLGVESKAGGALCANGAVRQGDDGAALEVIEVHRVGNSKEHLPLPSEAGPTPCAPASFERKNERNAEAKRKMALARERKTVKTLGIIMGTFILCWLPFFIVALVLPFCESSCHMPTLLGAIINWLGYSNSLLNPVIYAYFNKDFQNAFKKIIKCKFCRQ
Experimental: as §3, §4

T1 sequence (P14416 whole entry): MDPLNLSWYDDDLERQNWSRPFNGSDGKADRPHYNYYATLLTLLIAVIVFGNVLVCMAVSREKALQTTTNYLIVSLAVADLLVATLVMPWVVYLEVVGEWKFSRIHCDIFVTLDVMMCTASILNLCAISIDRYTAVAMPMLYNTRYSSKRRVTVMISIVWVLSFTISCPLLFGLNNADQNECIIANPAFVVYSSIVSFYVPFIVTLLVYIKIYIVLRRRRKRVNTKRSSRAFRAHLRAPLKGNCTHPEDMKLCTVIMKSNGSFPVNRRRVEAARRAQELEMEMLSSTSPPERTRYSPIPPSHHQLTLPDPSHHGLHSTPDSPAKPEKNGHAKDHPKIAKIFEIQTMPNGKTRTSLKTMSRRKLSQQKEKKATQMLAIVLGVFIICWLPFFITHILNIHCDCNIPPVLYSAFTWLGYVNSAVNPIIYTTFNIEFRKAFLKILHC
T2 sequence (P28223 whole entry): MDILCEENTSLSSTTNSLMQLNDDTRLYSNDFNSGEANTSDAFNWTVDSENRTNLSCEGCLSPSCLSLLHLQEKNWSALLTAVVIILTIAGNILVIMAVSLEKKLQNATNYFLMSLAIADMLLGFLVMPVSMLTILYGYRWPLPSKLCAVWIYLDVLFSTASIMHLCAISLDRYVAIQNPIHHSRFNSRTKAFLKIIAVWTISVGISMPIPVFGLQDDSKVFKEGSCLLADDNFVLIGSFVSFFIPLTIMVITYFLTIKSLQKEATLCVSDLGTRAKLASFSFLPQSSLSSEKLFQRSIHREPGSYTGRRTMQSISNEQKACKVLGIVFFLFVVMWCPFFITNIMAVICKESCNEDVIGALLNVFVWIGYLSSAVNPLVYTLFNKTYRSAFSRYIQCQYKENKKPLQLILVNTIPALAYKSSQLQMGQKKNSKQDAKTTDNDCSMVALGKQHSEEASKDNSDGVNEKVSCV

SMILES: CCC(CN1CCN(c2ccccc2OC)CC1)NCCCOc1c(C)cccc1C.Cl.Cl (stereo not shown) [HBK-10, N-(3-(2,6-dimethylphenoxy)propyl)-1-(4-(2-methoxyphenyl)piperazin-1-yl)butan-2-amine dihydrochloride]
- ED50 at 4 min [1]: 32.3 mg/kg
- Number of Crossings ± SEM (mice [2]; 10 mg/kg ip): 355.1 ± 49.92
- Number of Crossings ± SEM (mice [2]; 20 mg/kg ip): 329.8 ± 34.52
- Number of Crossings ± SEM (mice [2]; 40 mg/kg ip): 155.4 ± 29.59
- Number of Crossings ± SEM (mice [2]; 60 mg/kg ip): 22.17 ± 2.03
- ED50 for sedative effect, fold higher than the lowest antidepressant-like dose (mice [2]; mouse, in vivo): approximately 26 fold
- Recovery percent of parent compound after 30 min, fold higher than buspirone [3]: more than 100 fold
- half-life at 20 µM ([3]; male, CD-1, mouse, liver microsomes, pH 7.4, protein concentration 0.8): 25 min
- remaining at 0.5 h, 20 µM ([3]; male, CD-1, mouse, liver microsomes, pH 7.4, protein concentration 0.8, NADPH regenerating system, read-out: % Remaining after 30 min): 36%
- microsomal CLint at 20 µM ([3]; male, CD-1, mouse, liver microsomes, pH 7.4, protein concentration 0.8, read-out: Intrinsic Clearance (Clint)): 34.6 µL/min/mg
- Emax (dopamine D2 receptor; CHO-K1, read-out: Emax %, agonist mode): 9%
- Kb, fold lower than Kb of chlorpromazine (dopamine D2 receptor; D2, antagonist mode): 3.1 fold
- Kb (dopamine D2 receptor; D2, antagonist mode, Cheng–Prusoff equation): 2.76 nM
- IC50 (dopamine D2 receptor; read-out: pIC50 ± SEM, antagonist mode (converted)): 9.33 nM
- TD50 at 30 min (Chimney test in mice): 21.7 mg/kg
- % of Animals That Did Not Climb out the Chimney (mice [4]; 10 mg/kg ip): 20%
- % of Animals That Did Not Climb out the Chimney (mice [4]; 20 mg/kg ip): 40%
- % of Animals That Did Not Climb out the Chimney (mice [4]; 30 mg/kg ip): 64%
- % of Animals That Did Not Climb out the Chimney (mice [4]; 40 mg/kg ip): 87%
- % of Animals That Did Not Climb out the Chimney (mice [4]; 60 mg/kg ip): 90%
- Ki (human 5-HT2A receptor): 191 nM
- Ki (human 5-HT1A receptor): 5.13 nM
